Measured values reported in article PMC3449313 (Peptides, 2012).

How the values were obtained:
[1] = tested on: D. melanogaster pupal heart (white prepupae); type: in vivo, Drosophila melanogaster; conditions: 1 uM; without PI; relative to the effect of DMS; mean
[2] = tested on: D. melanogaster adult gut; assay: adult gut contraction; type: in vivo, Drosophila melanogaster; conditions: 0.1 nM; without PI; relative to the effect of DMS; mean

## VFLRFamide [[6-10]DMS]
[1]
  % Inhibition Pupal heart (without protease inhibitor): 103%
[2]
  % Inhibition Adult gut (without protease inhibitor): 78%
